Assay results as given in patent EP0364584A1, “ANTIDOTE FOR ORGANIC PHOSPHORUS COMPOUND POISONING” (priority 1988, dated 1989).
Like-named read-outs stand apart in the source and are kept apart here.

Experiments:
[1] = molecular target: T1, Azetylcholinesterase des menschlichen Bluts (Homo sapiens, UniProt P22303); assay: Reactivation in vitro of erythrocyte cholinesterase inhibited by organophosphorus compounds (potentiometric titration); type: biochemical; settings: reactivator 1.10^-4 M01/1, 25°C, pH 7,5
T1 construct: Cholinesterase des Grundgerüstes der Erythrozyten des menschlichen Bluts; from tissue; host or cells: human erythrocyte stroma (ghosts)
T1 sequence (P22303 other isoform, or with tags, fused parts or gaps): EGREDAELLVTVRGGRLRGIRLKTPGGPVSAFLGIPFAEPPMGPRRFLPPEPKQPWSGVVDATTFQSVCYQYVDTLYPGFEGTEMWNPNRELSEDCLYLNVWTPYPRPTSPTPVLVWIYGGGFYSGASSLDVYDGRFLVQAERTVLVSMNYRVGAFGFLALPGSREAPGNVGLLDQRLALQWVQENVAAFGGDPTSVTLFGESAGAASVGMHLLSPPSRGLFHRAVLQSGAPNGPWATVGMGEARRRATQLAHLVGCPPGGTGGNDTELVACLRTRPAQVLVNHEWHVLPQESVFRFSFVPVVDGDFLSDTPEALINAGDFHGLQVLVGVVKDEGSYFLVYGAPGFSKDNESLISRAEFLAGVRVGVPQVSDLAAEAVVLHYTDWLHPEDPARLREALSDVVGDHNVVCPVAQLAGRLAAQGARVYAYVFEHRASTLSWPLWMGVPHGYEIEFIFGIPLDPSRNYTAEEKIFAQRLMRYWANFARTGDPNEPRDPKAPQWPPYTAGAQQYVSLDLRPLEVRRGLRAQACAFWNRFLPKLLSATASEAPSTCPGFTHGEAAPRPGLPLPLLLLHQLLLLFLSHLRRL

[2] = Content of the drugs in blood and brain after intramuscular administration (Askew method); type: in vivo, Ratten; settings: rat, im, Ratten; for concentration at 2 h: 2 St., read-out: Konzentration (µg/g) 2 St. (converted); for concentration at 5 min: read-out: Konzentration (µg/g) 5 min; for concentration at 20 min: read-out: Konzentration (µg/g) 20 min (converted); for concentration at 0.5 h: 30 min, read-out: Konzentration (µg/g) 30 min; for concentration at 1 h: I St., read-out: Konzentration (µg/g) I St.; for concentration at 10 min: IO min, read-out: Konzentration (µg/g) IO min (converted)
Method: Mit Hilfe der Methode von Askew (1956) wurde in der Dynamik der Gehalt des erfindungsgemäßen Arzneimittels im Blut und Gehirn der Tiere untersucht. Die Untersuchungen wurden im Vergleich zum bekannten Präparak TMB-4 vorgenommen. Die Geschwindigkeit des Eindringens beider Präparate ins Blut und deren Konzentration wurden bei der-intramuskulären Einführung in Dosen von 20 ..und 50 mg/kg und der Gehirnspiegel - in einer Dosis von 50 mg/kg bestimmt. […]
Es wurde festgestellt, daß die Präparate schnell (nach 5 min) von der Einführungsstelle ins Blut eindringen, dabei wurde unabhängig von der Prüfdosis der Präparate deren Maximalgehalt im Blut 20 min nach der Einführung beobachtet, zwar erhöhte die Vergrößerung der Dosis der Präparate bis 50 mg/kg wesentlich deren Konzentrationsniveau während der ganzen Beobachtungsfrist.
Die im Vergleich zu TMB-4 durchgeführten Untersuchungen haben ergeben, dass während der ersten Stunde der Blutgehalt und das Anwachsen der Konzentrationen beider Präparate gleich waren. […] Die Untersuchungsergebnisse sind in der Tabelle 3 angeführt.
Nach den Ergebnissen der durchgeführten Untersuchungen wurde festgestellt, dass das erfindungsgemässe Arz- neimittel bei der intramuskulären Einführung schnell ins Blut und Gehirn des Tieres eindringt und zum Unterschied von TMB-4 eine längere Zeit im 3lutstrom zirkuliert und von 5 min an bis 4 Stunden Beobachtung im Gehirn in bedeutend grösseren Mengen enthalten ist.

[3] = blood, Blut, Dosis 20 mg/kg intramuskulär
[4] = blood, Blut, Dosis 50 mg/kg intramuskulär
[5] = brain, Gehirn, Dosis 50 mg/kg intramuskulär

Q: What does the source list for `ON=Cc1cc[n+](CCC[n+]2ccc(C=NO)cc2)cc1` [TMB-4, Trimethylen-1,3-bis-(4-oxyiminomethylpyridinium)bromid, reference compound]?
A: activity at 100 µM ([1]; 0.5 h, pH 7, inhibited with O,O-Dimethyl-(2,2,2-trichlor-1-oxyäthyl) phosphonat, 0,5 h, read-out: Aktivität der Azetylcholinesterase in % (Reaktivationszeit in Stunden) 0,5): 40%; activity at 100 µM ([1]; 0.5 h, pH 7, inhibited with O,O-Dimethyl-S-(1,2-dikarbäthoxyäthyl)-dithiophosphat, 0,5 h, read-out: Aktivität der Azetylcholinesterase in % (Reaktivationszeit in Stunden) 0,5): 27.4%; activity at 100 µM ([1]; 1 h, pH 7, inhibited with O,O-Dimethyl-(2,2,2-trichlor-1-oxyäthyl) phosphonat, 1 h, read-out: Aktivität der Azetylcholinesterase in % (Reaktivationszeit in Stunden) 1): 51%; activity at 100 µM ([1]; 1 h, pH 7, inhibited with O,O-Dimethyl-S-(1,2-dikarbäthoxyäthyl)-dithiophosphat, 1 h, read-out: Aktivität der Azetylcholinesterase in % (Reaktivationszeit in Stunden) 1): 43%; activity at 100 µM ([1]; 2 h, pH 7, inhibited with O,O-Dimethyl-(2,2,2-trichlor-1-oxyäthyl) phosphonat, 2 h, read-out: Aktivität der Azetylcholinesterase in % (Reaktivationszeit in Stunden) 2): 64.2%; activity at 100 µM ([1]; 2 h, pH 7, inhibited with O,O-Dimethyl-S-(1,2-dikarbäthoxyäthyl)-dithiophosphat, 2 h, read-out: Aktivität der Azetylcholinesterase in % (Reaktivationszeit in Stunden) 2): 52.9%; concentration at 2 h [2, 3]: 0.41 µg/g; concentration at 5 min [2, 3]: 3.6 µg/g; concentration at 20 min [2, 3]: 4.85 µg/g; concentration at 0.5 h [2, 3]: 4.35 µg/g; concentration at 1 h [2, 3]: 2.75 µg/g; concentration at 10 min [2, 3]: 4.42 µg/g; concentration at 2 h [2, 4]: 2.42 µg/g; concentration at 3 h ([2]; blood, Blut, Dosis 50 mg/kg intramuskulär, 3 St., read-out: Konzentration (µg/g) 3 St.): 1.95 µg/g; concentration at 5 min [2, 4]: 16.6 µg/g; concentration at 20 min [2, 4]: 18.4 µg/g; concentration at 0.5 h [2, 4]: 15.1 µg/g; concentration at 1 h [2, 4]: 11.5 µg/g; concentration at 10 min [2, 4]: 21.1 µg/g; concentration at 2 h [2, 5]: 0.34 µg/g; concentration at 5 min [2, 5]: 0.86 µg/g; concentration at 20 min [2, 5]: 2.32 µg/g; concentration at 0.5 h [2, 5]: 2.28 µg/g; concentration at 1 h [2, 5]: 1.5 µg/g; concentration at 10 min [2, 5]: 0.98 µg/g
